In brackets after ≈: the same amount, converted by molar mass. Non-standard residues stand in square brackets, D forms with d. Residues, ends and D or L forms follow the SMILES beside them. *: point of attachment. Palmitoyl = CCCCCCCCCCCCCCCC(=O)*; dOrn = NCCC[C@@H](N)C(=O)O
Assays:
[1] = Cytotoxicity (resazurin) assay
Procedure: For the cytotoxicity (resazurin) assay, HEK293 cells were counted manually in a Neubauer haemocytometer and plated at a density of 4000 cells/well into each well of the 384-well plates containing the 25×(2 μl) concentrated compounds. The medium used was Dulbecco's modified eagle medium (DMEM) supplemented with 10% foetal bovine serum (FBS). Cells were incubated together with the compounds for 20 h at 37° C., 5% CO2. To measure cytotoxicity, 5 μl (equals 100 μM final) resazurin was added to each well after incubation, and incubated for further 3 h at 37° C. with 5% CO2.
After final incubation fluorescence intensity was measured as F ex 560/10 nm, em 590/10 nm (F560/590) using a Tecan M1000 Pro monochromator plate reader. […] The concentration dependent percentage cytotoxicity was fitted to a dose response function (using Pipeline Pilot) and CC50 values determined.

Hemolysis assay = type: cell-based
Procedure: For the hemolysis assays EDTA-blood was centrifuged at 800×g for 10 min, and the plasma and buffy coat were removed. The erythrocytes were washed three times and resuspended in 5% PBS, pH 7.4. The cells were then incubated with end-over-end rotation for 1 h at 37° C. in the presence of different concentrations of peptides (0, 3, 10, 30, 60 μm). 0.1% Triton X-100 (Sigma-Aldrich) served as positive control. The samples were then centrifuged at 800×g for 10 min.
The absorbance of hemoglobin release was measured at 540 nm and is expressed as % of Triton X-100-induced hemolysis. These values of triplicates were plotted with Graph Pad Prism 4 as a dose response curve and the CC50 was determined.

[2] = test system: Candida albicans ATCC 24433; assay: CFU-assay, Candida albicans-cidal activity; type: cell-based; conditions: pH 5.5, 1% TSB
Procedure: Thus, within the present invention, the antimicrobial activity is generally measured in nutrient deficient 10 mM sodium phosphate buffer pH 5.5, containing 0.25% glucose, using the CFU-assay according to Steinberg and Lehrer, 1997 (supra), unless otherwise indicated. The CFU-assay allows determination of the minimal bactericidal concentration (MBC, e.g., MBC90 and MBC100; i.e. the concentration of compound required to achieve a specified reduction in bacterial cell number (microbial death or killing)). […]
HR 1-17 affects C. albicans ATCC 24433 with highest activity at pH 5.5 in the absence of TSB in the medium (see Tables 12, 24). […] Furthermore, the substitution of any of the Arg residues by Gly leads to a dramatic reduction or loss of candidacidal activity (see Table 24).

P. aeruginosa ATCC 10145 = assay: CFU-assay, P. aeruginosa-cidal activity; type: cell-based, Pseudomonas aeruginosa; conditions: pH 5.0, 0.25% glucose

Molecule | CC50 [1] [µg/mL] | HC50 (Hemolysis assay) [µg/mL] | MBC90 [2] [µg/mL] | MBC100 [2] [µg/mL] | MBC90 (P. aeruginosa ATCC 10145) [µg/mL] | MBC100 (P. aeruginosa ATCC 10145) [µg/mL]
CCCCCCCCCCCCCCCC(=O)SC[C@H](NC(=O)[C@H](CCCNC(=N)N)NC(=O)CNC(=O)[C@H](CCCNC(=N)N)NC(=O)CNC(=O)[C@H](CCCNC(=N)N)NC(=O)CNC(=O)CNC(=O)[C@H](CCCNC(=N)N)NC(=O)CNC(=O)CNC(=O)[C@H](CCCNC(=N)N)NC(=O)[C@H](CCCNC(=N)N)NC(=O)CN)C(N)=O [C-Pal-GR13] (H-GRRGGRGGRGRGRC(Palmitoyl)-NH2) | > 32 |  |  |  |  | 
CCCCCCCCCCCCCCCC(=O)NCC(=O)N[C@H](CCCCN)C(=O)NCC(=O)N[C@H](CCCCN)C(=O)O [D-Pal-GK4, D-Pal-GKDGKD] (HELM PEPTIDE1{[CCCCCCCCCCCCCCCC(=O)[*:2]].G.[dK].G.[dK]}$$$$V2.0) | > 32 | 40 |  |  |  | 
CCCCCCCCCCCCCCCC(=O)NCC(=O)N[C@H](CCCN)C(=O)NCC(=O)N[C@H](CCCN)C(=O)O [D-Pal-GOrn4, D-Pal-GODGOD] (Palmitoyl-G[dOrn]G[dOrn]-OH) | > 32 | 55 |  |  |  | 
CCCCCCCCCCCCCCCC(=O)NCC(=O)N[C@H](CCCNC(=N)N)C(=O)NCC(=O)N[C@H](CCCNC(=N)N)C(=O)O [D-Pal-GR4, Pal-GRDGRD] (HELM PEPTIDE1{[CCCCCCCCCCCCCCCC(=O)[*:2]].G.[dR].G.[dR]}$$$$V2.0) | > 32 | 300 |  |  |  | 
CCCCCCCCCCCCCCCC(=O)NCC(=O)N[C@H](CCCNC(=N)N)C(=O)N[C@H](CCCNC(=N)N)C(=O)NCC(=O)NCC(=O)N[C@H](CCCNC(=N)N)C(=O)NCC(=O)NCC(=O)N[C@H](CCCNC(=N)N)C(=O)O [D-Pal-GR9] (HELM PEPTIDE1{[CCCCCCCCCCCCCCCC(=O)[*:2]].G.[dR].[dR].G.G.[dR].G.G.[dR]}$$$$V2.0) | > 32 | > 100 |  |  |  | 
N=C(N)NCCC[C@H](NC(=O)[C@H](Cc1c[nH]cn1)NC(=O)[C@H](CO)NC(=O)[C@H](CCCNC(=N)N)NC(=O)[C@H](CCCNC(=N)N)NC(=O)[C@H](CS)NC(=O)[C@H](CCCNC(=N)N)NC(=O)[C@H](Cc1c[nH]cn1)NC(=O)[C@H](Cc1c[nH]cn1)NC(=O)[C@@H](N)CO)C(=O)N[C@@H](CS)C(=O)O [LCE3A50-60] (H-SHHRCRRSHRC-OH) | > 32 |  |  |  |  | 
N=C(N)NCCC[C@H](NC(=O)[C@H](CC(=O)O)NC(=O)[C@H](CS)NC(=O)[C@H](CO)NC(=O)[C@H](CC(N)=O)NC(=O)[C@H](CO)NC(=O)[C@H](CCCNC(=N)N)NC(=O)[C@H](CCC(N)=O)NC(=O)[C@H](CCCNC(=N)N)NC(=O)[C@H](CCCNC(=N)N)NC(=O)[C@H](CS)NC(=O)[C@H](CCC(N)=O)NC(=O)[C@H](Cc1c[nH]cn1)NC(=O)[C@H](CO)NC(=O)[C@H](CCCNC(=N)N)NC(=O)[C@H](Cc1ccccc1)NC(=O)[C@H](Cc1c[nH]cn1)NC(=O)[C@H](CCCNC(=N)N)NC(=O)[C@H](Cc1c[nH]cn1)NC(=O)[C@H](Cc1c[nH]cn1)NC(=O)[C@@H](N)CO)C(=O)O [LCE3C55-75] (H-SHHRHFRSHQCRRQRSNSCDR-OH) | > 32 | > 300 |  |  |  | 
CCCCCCCCCCCCCC(=O)NCC(=O)N[C@@H](CCCNC(=N)N)C(=O)N[C@@H](Cc1c[nH]cn1)C(=O)NCC(=O)N[C@@H](CO)C(=O)NCC(=O)N[C@@H](CC(C)C)C(=O)NCC(=O)N[C@@H](Cc1c[nH]cn1)C(=O)N[C@@H](CO)C(=O)N[C@@H](CO)C(=O)N[C@@H](CO)C(=O)N[C@@H](Cc1c[nH]cn1)C(=O)NCC(=O)N[C@@H](CCC(N)=O)C(=O)N[C@@H](Cc1c[nH]cn1)C(=O)NCC(=O)N[C@@H](CO)C(=O)NCC(=O)N[C@@H](CO)C(=O)NCC(=O)N[C@@H](CCCNC(=N)N)C(=O)O [Myr-HR 1-18] (HELM PEPTIDE1{[CCCCCCCCCCCCCC(=O)[*:2]].G.R.H.G.S.G.L.G.H.S.S.S.H.G.Q.H.G.S.G.S.G.R}$$$$V2.0) | 32 (≈ 13.9 µM) | > 300 |  |  |  | 
CCCCCCCCCCCCCCCC(=O)NCC(=O)N[C@@H](CCCCN)C(=O)NCC(=O)N[C@@H](CCCCN)C(=O)O [Pal-GK4, Pal-GKGK] (HELM PEPTIDE1{[CCCCCCCCCCCCCCCC(=O)[*:2]].G.K.G.K}$$$$V2.0) | > 32 | 50 |  |  |  | 
CCCCCCCCCCCCCCCC(=O)NCC(=O)N[C@@H](CCCN)C(=O)NCC(=O)N[C@@H](CCCN)C(=O)O [Pal-GOrn4, Pal-GOGO] (HELM PEPTIDE1{[CCCCCCCCCCCCCCCC(=O)[*:2]].G.[Orn].G.[Orn]}$$$$V2.0) | > 32 | 80 |  |  |  | 
GGHGSGLGHSSSHGQHGSGSGRSSSRGPY (Modified peptide derived from human hornerin (HR 1-17 R2657G)) |  |  | >300 | >300 | 0.0375 | 0.3
GRHGSGLGHSSSHGQHGSGSGGSSSRGPY (Modified peptide derived from human hornerin (HR 1-17 R2677G)) |  |  | 300 | >300 | 0.0375 | 0.15

— patent publication US11479587B2, “Cationic intrinsically disordered antimicrobial peptides” (priority 2016, dated 2022)
